Results taken from publication PMC11849186 (BMC Biology, 2025).

Tests used:
[1] = biological target: T1, Pheromone binding protein 5 (Pbp5) mutant (Bactrocera dorsalis, UniProt A0A6I9V7R6, F147A/F31A/F95A/I28A); test: direct fluorescence binding assay
T1 sequence (A0A6I9V7R6 21-147 I28A/F31A/F95A/F147A): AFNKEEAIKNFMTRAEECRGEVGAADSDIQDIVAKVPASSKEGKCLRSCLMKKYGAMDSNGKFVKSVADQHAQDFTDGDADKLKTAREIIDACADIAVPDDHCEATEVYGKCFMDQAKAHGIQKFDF

[2] = biological target: T2, Pheromone binding protein 5 (Pbp5) (Bactrocera dorsalis, UniProt A0A6I9V7R6); test: direct fluorescence binding assay
T2 sequence (A0A6I9V7R6 21-147): T1 sequence (A0A6I9V7R6 21-147 I28A/F31A/F95A/F147A)

[3] = biological target: T2, Pheromone binding protein 5 (Pbp5); test: competitive fluorescence displacement of 1-NPN

Ki [3] | Structure (SMILES) | Kd [1] | Kd [2]
– | c1ccc(Nc2cccc3ccccc23)cc1 [1-NPN, N-phenyl-1-naphthylamine] | 33.9 µM | 10.6 µM
224 nM | Cc1cnc(C)c(C)n1 [TMP, trimethylpyrazine] | – | –
210 nM | Cc1nc(C)c(C)nc1C [TTMP, tetramethylpyrazine] | – | –
